Measurements taken from ChEMBL document CHEMBL1759971, “Substituted phenyl triazoles as selective inhibitors of 11β-Hydroxysteroid Dehydrogenase Type 1” (Bioorg Med Chem Lett, 2011).

Experiments:
[1] = system: Mus musculus; experiment: Inhibition of 11beta-HSD1 in ICR mouse assessed as conversion of [3H]cortisone to [3H]cortisol at 10 mg/kg, po after 4 hrs by scintillation counting; type: functional
[2] = target: T1, Nuclear receptor subfamily 1 group I member 2 (Homo sapiens, UniProt O75469); experiment: Agonist activity at PXR; type: functional
T1 sequence (O75469 whole entry): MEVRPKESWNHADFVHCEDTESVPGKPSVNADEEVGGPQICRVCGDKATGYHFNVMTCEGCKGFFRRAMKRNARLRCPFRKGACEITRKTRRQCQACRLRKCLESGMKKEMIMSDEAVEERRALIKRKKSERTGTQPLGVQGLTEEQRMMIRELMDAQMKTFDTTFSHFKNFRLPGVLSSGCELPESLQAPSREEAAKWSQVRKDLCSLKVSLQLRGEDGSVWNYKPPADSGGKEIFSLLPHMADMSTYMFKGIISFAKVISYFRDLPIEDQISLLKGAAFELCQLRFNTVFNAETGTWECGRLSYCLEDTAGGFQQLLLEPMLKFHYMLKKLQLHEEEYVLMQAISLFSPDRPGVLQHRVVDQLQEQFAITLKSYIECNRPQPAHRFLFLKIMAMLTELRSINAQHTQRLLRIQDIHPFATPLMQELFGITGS

[3] = target: T1, Nuclear receptor subfamily 1 group I member 2; experiment: Agonist activity at PXR at 10 uM; type: functional
[4] = target: 11-beta-hydroxysteroid dehydrogenase 1 (Homo sapiens, UniProt P28845); experiment: Inhibition of human 11beta-HSD1 expressed in CHO-K1 cells assessed as conversion of [3H]cortisone to [3H]cortisol by scintillation counting; type: cell-based
Sequence of 11-beta-hydroxysteroid dehydrogenase 1 (Homo sapiens, UniProt P28845) (P28845 whole entry): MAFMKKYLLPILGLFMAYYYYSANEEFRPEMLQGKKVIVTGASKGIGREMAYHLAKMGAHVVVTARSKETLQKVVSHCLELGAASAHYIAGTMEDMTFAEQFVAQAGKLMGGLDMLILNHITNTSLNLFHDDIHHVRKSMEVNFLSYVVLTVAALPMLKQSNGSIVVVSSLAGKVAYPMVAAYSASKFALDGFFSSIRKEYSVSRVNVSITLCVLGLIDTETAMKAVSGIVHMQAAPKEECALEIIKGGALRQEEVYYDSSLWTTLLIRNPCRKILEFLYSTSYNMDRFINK

[5] = target: 11-beta-hydroxysteroid dehydrogenase 1 (Mus musculus, UniProt P50172); experiment: Inhibition of mouse 11beta-HSD1 expressed in CHO-K1 cells assessed as conversion of [3H]cortisone to [3H]cortisol by scintillation counting; type: cell-based
Sequence of 11-beta-hydroxysteroid dehydrogenase 1 (Mus musculus, UniProt P50172) (P50172 whole entry): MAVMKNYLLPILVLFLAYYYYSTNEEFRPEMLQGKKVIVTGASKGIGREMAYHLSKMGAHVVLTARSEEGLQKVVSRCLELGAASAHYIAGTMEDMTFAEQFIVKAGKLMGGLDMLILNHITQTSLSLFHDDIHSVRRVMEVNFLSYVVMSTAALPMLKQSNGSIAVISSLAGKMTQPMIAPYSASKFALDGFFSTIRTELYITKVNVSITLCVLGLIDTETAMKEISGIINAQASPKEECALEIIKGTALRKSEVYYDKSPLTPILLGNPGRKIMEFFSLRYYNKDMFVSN

[6] = system: Mus musculus; experiment: Inhibition of 11beta-HSD1 in ICR mouse assessed as conversion of [3H]cortisone to [3H]cortisol at 10 mg/kg, po after 16 hrs by scintillation counting; type: functional
[7] = target: T2, 11-beta-hydroxysteroid dehydrogenase type 2 (Homo sapiens, UniProt P80365); experiment: Inhibition of human 11beta-HSD2
T2 sequence (P80365 whole entry): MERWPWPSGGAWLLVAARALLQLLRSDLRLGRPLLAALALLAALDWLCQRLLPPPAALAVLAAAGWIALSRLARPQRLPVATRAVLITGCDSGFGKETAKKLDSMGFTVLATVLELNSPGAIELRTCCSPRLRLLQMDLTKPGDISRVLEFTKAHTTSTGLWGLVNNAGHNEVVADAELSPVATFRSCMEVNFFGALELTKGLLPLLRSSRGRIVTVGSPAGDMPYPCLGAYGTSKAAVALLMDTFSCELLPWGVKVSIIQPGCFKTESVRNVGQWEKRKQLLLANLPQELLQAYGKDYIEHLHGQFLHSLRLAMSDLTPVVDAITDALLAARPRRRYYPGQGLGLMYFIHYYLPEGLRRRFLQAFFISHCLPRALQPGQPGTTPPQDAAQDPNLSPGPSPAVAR

[8] = target: T3, 11-beta-hydroxysteroid dehydrogenase type 2 (Mus musculus, UniProt P51661); experiment: Inhibition of mouse 11beta-HSD2
T3 sequence (P51661 whole entry): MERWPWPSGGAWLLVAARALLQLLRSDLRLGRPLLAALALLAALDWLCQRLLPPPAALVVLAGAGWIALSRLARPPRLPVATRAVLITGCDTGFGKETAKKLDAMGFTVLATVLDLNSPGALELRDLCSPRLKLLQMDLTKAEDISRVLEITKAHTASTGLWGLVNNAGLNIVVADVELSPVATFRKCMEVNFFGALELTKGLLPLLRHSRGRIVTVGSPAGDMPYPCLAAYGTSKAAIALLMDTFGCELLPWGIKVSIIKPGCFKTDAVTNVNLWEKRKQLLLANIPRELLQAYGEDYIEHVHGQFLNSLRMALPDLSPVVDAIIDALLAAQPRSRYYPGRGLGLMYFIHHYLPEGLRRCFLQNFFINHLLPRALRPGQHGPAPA

EC50 [2] [nM]	Activity [3] [%]	IC50 [4] [nM]	IC50 [5] [nM]	IC50 [7] [nM]	IC50 [8] [nM]	Structure (SMILES)	inhibition in vivo at 10 mg/kg [1] [%]	inhibition in vivo at 10 mg/kg [6] [%]
> 30000	-1	76	87	> 4000	> 4000	Cn1c(-c2ccc(C(=O)O)cc2)nnc1C1(c2ccc(Cl)cc2)CCC1	10	-8
> 30000	21	1	26	> 4000	> 4000	Cn1c(-c2ccc(C(N)=O)cc2)nnc1C1(c2ccc(Cl)cc2)CCC1	35	4
> 30000	18	69	7.8	> 4000	> 4000	CCNC(=O)c1ccc(-c2nnc(C3(c4ccc(Cl)cc4)CCC3)n2C)cc1	71	0
> 30000	11	540	3	> 4000	> 4000	Cn1c(-c2ccc(C(=O)NC(C)(C)C)cc2)nnc1C1(c2ccc(Cl)cc2)CCC1	71	5
> 30000	14	300	11	> 4000	> 4000	Cn1c(-c2ccc(C(=O)NC3CC3)cc2)nnc1C1(c2ccc(Cl)cc2)CCC1	–	–
> 30000	4	470	6.6	> 4000	> 4000	Cn1c(-c2ccc(C(=O)NC3CCC3)cc2)nnc1C1(c2ccc(Cl)cc2)CCC1	–	–
> 30000	10	250	62	> 4000	> 4000	Cn1c(-c2ccc(C(=O)N3CCC3)cc2)nnc1C1(c2ccc(Cl)cc2)CCC1	–	–
> 30000	10	650	130	> 4000	> 4000	Cn1c(-c2ccc(C(=O)N3CCCC3)cc2)nnc1C1(c2ccc(Cl)cc2)CCC1	24	0
> 30000	16	560	200	> 4000	> 4000	Cn1c(-c2ccc(C(=O)N3CCOCC3)cc2)nnc1C1(c2ccc(Cl)cc2)CCC1	–	–
18000	28	11	19	> 4000	> 4000	Cn1c(-c2ccc(C(=O)O)cc2Cl)nnc1C1(c2ccc(Cl)cc2)CCC1	90	38
> 30000	16	< 1	1	> 4000	> 4000	Cn1c(-c2ccc(C(N)=O)cc2Cl)nnc1C1(c2ccc(Cl)cc2)CCC1	57	12
> 30000	22	–	15	3100	–	Cn1c(-c2ccc(N)cc2)nnc1C1(c2ccc(Cl)cc2)CCC1	77	12
> 30000	21	5.8	9.1	> 4000	> 4000	CC(=O)Nc1ccc(-c2nnc(C3(c4ccc(Cl)cc4)CCC3)n2C)cc1	59	10
> 30000	-2.5	69	11	> 4000	> 4000	Cn1c(-c2ccc(NC(=O)c3cnccn3)cc2)nnc1C1(c2ccc(Cl)cc2)CCC1	67	5
8700	55	8.7	1	> 4000	> 4000	Cn1c(-c2ccc(NC(=O)c3cccs3)cc2)nnc1C1(c2ccc(Cl)cc2)CCC1	63	2
> 30000	18	9.5	< 1	> 4000	> 4000	Cc1cc(C(=O)Nc2ccc(-c3nnc(C4(c5ccc(Cl)cc5)CCC4)n3C)cc2)c(C)o1	91	81
> 30000	21	8	2.8	> 4000	> 4000	Cn1c(-c2ccc(NC(=O)c3ccno3)cc2)nnc1C1(c2ccc(Cl)cc2)CCC1	69	11
> 30000	35	–	< 1	2300	–	Cn1c(-c2ccc(N)cc2Cl)nnc1C1(c2ccc(Cl)cc2)CCC1	90	38
> 30000	34	< 1	< 1	> 4000	> 4000	CC(=O)Nc1ccc(-c2nnc(C3(c4ccc(Cl)cc4)CCC3)n2C)c(Cl)c1	79	27
> 30000	33	2.6	1.9	> 4000	> 4000	Cn1c(-c2ccc(NC(=O)c3cnccn3)cc2Cl)nnc1C1(c2ccc(Cl)cc2)CCC1	82	46
> 30000	7	1.5	2.6	> 4000	> 4000	Cn1c(-c2ccc(-c3cncnc3)cc2)nnc1C1(c2ccc(Cl)cc2)CCC1	46	-4
> 30000	9	1.2	2.9	> 4000	> 4000	Cn1c(-c2ccc(-c3cnc(O)nc3)cc2)nnc1C1(c2ccc(Cl)cc2)CCC1	–	–
> 30000	12	4.8	1.1	> 4000	> 4000	Cn1c(-c2ccc(-c3ccc(N)nn3)cc2)nnc1C1(c2ccc(Cl)cc2)CCC1	–	–
23000	29	1.1	4.1	> 4000	> 4000	Cn1c(-c2ccc(-c3cnoc3)cc2)nnc1C1(c2ccc(Cl)cc2)CCC1	–	–
3000	78	–	< 1	1300	–	Cn1c(-c2ccc(-c3ccsc3)cc2)nnc1C1(c2ccc(Cl)cc2)CCC1	81	33
> 30000	4	120	68	> 4000	> 4000	Cn1c(-c2ccc(-c3cnccn3)cc2C(N)=O)nnc1C1(c2ccc(Cl)cc2)CCC1	–	–
1600	100	–	–	–	–	Clc1ccc(C2(c3nnc4n3CCCCCC4)CCC2)cc1	–	–
–	35	–	–	> 4000	–	Cn1c(-c2ccc(-c3cccnc3)cc2Cl)nnc1C1(c2ccc(Cl)cc2)CCC1	–	–
1700	90	–	–	–	–	Cn1c(-c2ccc(-c3ccccc3)cc2)nnc1C1(c2ccc(Cl)cc2)CCC1	–	–
